Data on 6 molecules can be found in patent publication EP1695711A2, “Parenteral formulations comprising boronic acid species for selective thrombin inhibition” (TRIGEN LIMITED, priority 2002, dated 2004).

For data set [1], the system named is thrombin time and APTT. Format: in vivo, beagle dogs. Particulars: dog. The procedure:
Plasma was prepared by centrifugation and frozen at minus 20°C pending analysis.

Data set [2] in a line: Stability: HPLC-PDA assay before and after drying. Format: physicochemical. Particulars: for Amount: 5 mg in 5 mL. The procedure:
An assay of TRI 50c and its sodium and lysine salts before and after drying.
For sample analysis, 5 mg of dried and non-dried material was weighed in a 5 mL volumetric flask and dissolved in 1 mL acetonitrile and filled up with demineralised water to 5 mL.
The quantitative evaluation was performed using an HPLC-PDA method.

Data set [3] has as its system platelet procoagulant activity. The experiment in a line: Inhibition of platelet procoagulant activity. Format: cell-based. An excerpt:
Platelet pro-coagulant activity may be observed as the increase, in rate of activation of prothrombin by factor Xa in the presence of factor Va upon the addition of platelets pretreated with thrombin, caused by thrombin alone, collagen alone or a mixture of thrombin and collagen. This property is due to an increase in anionic phospholipid on the surface of the platelet with concomitant release of microvesicle from the surface. This is an essential physiological reaction and people whose platelets have reduced ability to generate procoagulant activity (Scott syndrome) show an increased tendency for bleeding.
Washed platelets were treated with either 1.15nM thrombin, 23µg/ml collagen or a mixture of both at the same concentration at 37°C. TRI 50b was added either for 1 minute prior to the addition of activator or immediately after the incubation with activator. Platelet procoagulant activity was determined as described previously (Goodwin C A et al, Biochem J. 1995 8, 308: 15-21).

Data set [4] in a line: i.v. pharmacokinetics in rats. The note with it: rat.
Method: (§1) Rats, body weight circa 250-300g were used. The animals were fasted only on the day of use for the iv stage.
(§2) Just before administration, 5 volumes of this solution is mixed with 3 volumes of 5% kollidon 17 8F.
(§3) Both compounds were given at a dose of 1.0mg/kg iv.
(§4) The compounds were dosed in a PEG/ethanol/kollidon formulation which was prepared immediately before, as described immediately under the heading "Dose": Stock 15.0mg/ml. This was dosed at 1.33ml/kg (equivalent to 30mg/kg).
(§5) A pre dose sample was taken followed by: 0, 2, 5, 10, 20, 30, 40, 60 and 90 minutes post dose.
(§6) This was obtained by centrifugation (3000 RPM for 10 min) and stored at -20°C prior to analysis.
The subject of data set [5] is washed platelets. The data set is described as follows: Aggregation of washed platelets. Format: cell-based.
In data set [6] the test system is platelet rich thrombus. The data set is described as follows: Rabbit extracorporeal shunt model. Format: in vivo, NZW rabbits. The note with it: for THROMBUS WEIGHT AFTER 20 minute run: n=5. An excerpt: The technique describes an animal model in which a platelet rich thrombus is produced. The activity of TRI 50b and heparin are compared.
The carotid artery and jugular vein of anaesthetised rabbits were used to create an extracorporeal circuit containing a suspended foreign surface (silk thread). Thrombus deposition is initiated by creation of high sheer stress turbulent arterial blood flow, platelet activation, followed by coagulation in the presence of thrombogenic surfaces. Histopathological studies have shown that the thrombus is platelet rich.
NZW rabbits (males 2.5-3.5 kg) were used. The animals were allowed food and water up to the induction of anaesthesia.
Animals were premedicated with […] (Hypnorm) 0.15 ml total by intramuscular injection. General anaesthesia was induced with methohexitone (10 mg/ml) to effect, followed by endotracheal intubation. Anaesthesia was maintained with isoflurane (1-2.0 %) carried in oxygen /nitrous oxide.
The animals were placed in dorsal recumbency and the ventral cervical region prepared for surgery. The left carotid artery and right jugular vein were exposed. The artery was cannulated with a large Portex® catheter (yellow gauge), cut to a suitable length. The vein was cannulated with a Silastic® catheter. The shunt comprised of a 5 cm length of 'auto analyser' line (purple /white gauge). Joins to the shunt on the arterial side were made with intermediate size Silastic® tubing. The shunt was filled with saline before exposure to the circulation. The right femoral artery was cannulated for the measurement of blood pressure.
The central section of the shunt contained a thread 3 centimetres in length. This consisted of 000 gauge Gutterman sewing silk so as to give four strands with a single knot at the end. (The knot section was outside the shunt).
Blood flow velocity was determined by use of 'Doppler' probes (Crystal Biotech). A silastic probe was positioned over the carotid artery at the point of insertion of the arterial catheter. Flow was recorded on a chart recorder using heat sensitive paper.

Data set [7] in a line: Hydrolysis under HPLC assay conditions. In kind it is physicochemical. Particulars: acid conditions / sample preparation of an HPLC assay.
For data set [8] the following is noted: rat, in vivo, iv, 1 mg/kg.
Method: as §1, §2, §3, §4, §5, §6
The target of data set [9] is T1, thrombin (Homo sapiens, UniProt P00734).
T1 construct: purchased HTI, via Cambridge Bioscience
The data set is described as follows: Thrombin amidolytic assay (S2238, Vmax). The note with it: TRI 50b as external control; Fig. 1. In kind it is biochemical. As for the experimental part:
Chromogenic substrate S2238 dissolved to 4mM (25mg + 10ml) in water. Diluted to 50uM with assay buffer for use in assay at 5µM. (S2238 is H-D-Phe-Pip-Arg-pNA).
Thrombin obtained from HTI, via Cambridge Bioscience, and aliquoted at 1mg/ml with assay buffer. Dilute to 100ng/ml with assay buffer and then a further 1 in 3 for use in the assay.
• 110µl assay buffer • 50ul 5µg/ml thrombin • 20µl vehicle or compound solution • 5 min at 37°C • 20µl 50µM S2238

Data set [10] in a line: Maximum aqueous solubility (shaken in water at 37°C, filtered, UV spectrum). Particulars: read-out: Solubility when dissolved at 50mg/ml. In kind it is physicochemical.
Setting [11] is: dry (desiccator over phosphorus pentoxide for 1 week), listed as TRI 50c Na salt, monosodium salt.
Setting [12] is: non-dried, listed as TRI 50c Na salt, monosodium salt.
Where [13] appears, read: dry (desiccator over phosphorus pentoxide for 1 week).

Molecules are shown by their SMILES. Counter-ions that a name gives are not always drawn. Like-named read-outs stand apart in the source and are kept apart here.

In the case of `COCCC[C@H](NC(=O)[C@@H]1CCCN1C(=O)[C@@H](Cc1ccccc1)NC(=O)OCc1ccccc1)B(O)O` [TRI 50c sodium salt, Cbz-(R)-Phe-(S)-Pro-(R)-Mpg-B(OH)2 monosodium salt], the thrombin time amounted to 154.4 s in data set [1] (1.0 mg/kg i.v., 2 minutes post dose, base line 14.3 seconds, listed as sodium salt, monosodium salt, 1 mg/kg); 154 s in data set [1] (1.0 mg/kg i.v., 2 minutes post dose, base line 14.3 seconds, monosodium salt, 1 mg/kg); 26 s in [1] (1.0 mg/kg i.v., one hour post dose). Moreover, the “elevation in the APTT” value in [1] (1.0 mg/kg i.v., post dose) is recorded as 1.3 times. The APTT in data set [1] (1.0 mg/kg i.v., post dose, base line 19 seconds) was 25 s. In data set [1] (1.0 mg/kg i.v., two minutes following dosing), the “Thrombin clotting time elevation above base line” value amounted to 10.8 times. In addition, the “tolerability / adverse events” value in [1] (in vivo, iv, 1 mg/kg) is “tolerated well with no adverse events”. Besides, the Amount in [2] (setting [11]) was 1024 µg/mL; in data set [2] (setting [12]), 1005.8 µg/mL. Besides, the figures for the “Purity (% area)” value in data set [2] (setting [11]) and in [2] (setting [12]) were 98.81 % area and 98.61 % area, respectively.

Turning to `COCCC[C@H](NC(=O)[C@@H]1CCCN1C(=O)[C@@H](Cc1ccccc1)NC(=O)OCc1ccccc1)B1OC(C)(C)C(C)(C)O1` [TRI 50b, Cbz-(R)-Phe-Pro-BoroMpg-OPinacol], the IC50 in [3] (agonist Collagen (23µg/ml), TRI 50b added 1 minute prior to activator, read-out: I C50 plus pre-incubation) came out at 200 nM; in data set [3] (agonist Collagen (23µg/ml), TRI 50b added after incubation with activator, read-out: I C50 without incubation) it was 300 nM; in data set [3] (agonist Thrombin/Collagen, TRI 50b added 1 minute prior to activator, read-out: I C50 plus pre-incubation), 3 nM; in [3] (agonist Thrombin/Collagen, TRI 50b added after incubation with activator, read-out: I C50 without incubation), 80 nM. Moreover, in [4] (1.0mg/kg iv, n=3), the Area under curve came out at 1.68. For the same molecule, in data set [4] (1.0mg/kg iv, n=3), the “Max Plasma Concentration (observed)” value was found to be 2.24. Further, the Vd (usually the apparent volume that relates the amount in the body to the concentration in plasma or blood) in data set [4] (plasma, iv, 1 mg/kg) is 0.5 L/kg. In addition, the “effect on ADP, collagen or epinephrine induced aggregation” value in data set [5] is “does not have an effect”. Moreover, the “THROMBUS WEIGHT AFTER 20 minute run” value is 15.3 ±2.2 mg(n=5) in data set [6] (3.0mg/kg iv) and 9.78 ±1.9 mg(n=5) in data set [6] (10mg/kg iv). In addition, the bleeding entry in data set [6] (3mg/kg to 10mg/kg iv) is “without bleeding”. The “hydrolysis to the acid form (TRI 50c)” value in data set [7] was “short half life”.

For the molecule `COCCC[C@H](NC(=O)[C@@H]1CCCN1C(=O)[C@@H](Cc1ccccc1)NC(=O)OCc1ccccc1)B(O)O` [TRI 50c Lys salt], the results for the “Purity (% area)” value in data set [2] (setting [13]) and in [2] (non-dried) were 90.17 % area and 92.25 % area, respectively. For the same molecule, the results for the Amount in [2] (setting [13]) and in data set [2] (non-dried) were 813.3 µg/mL and 809.8 µg/mL, respectively.

Take `COCCC[C@H](NC(=O)[C@@H]1CCCN1C(=O)[C@@H](Cc1ccccc1)NC(=O)OCc1ccccc1)B(O)O` [TRI 50c, Cbz-(R)-Phe-(S)-Pro-(R)-boroMpg-OH]: in data set [2] (setting [13]), the “Purity (% area)” value is listed as 82.00 % area and the Amount is 1000.0 µg/mL. Further, in data set [8], the Area under curve was found to be 1.48, the “Max Plasma Concentration (observed)” value stood at 2.35 and the “Volume Distribution” value worked out at 0.59 L/kg.

Regarding `COCCC[C@H](NC(=O)[C@@H]1CCCN1C(=O)[C@@H](Cc1ccccc1)NC(=O)OCc1ccccc1)B(O)O` [magnesium salt of TRI 50c], the “activity in thrombin amidolytic assay” value in data set [9] was “the same activity as TRI 50b”.

For `COCCC[C@H](NC(=O)[C@@H]1CCCN1C(=O)[C@@H](Cc1ccccc1)NC(=O)OCc1ccccc1)B(O)O` [lithium salt], the solubility in data set [10] was determined as 43 mg/mL.
